Results on 34 compounds are retold here after paper PMC7074965, “Discovery of Two Brominated Oxindole Alkaloids as Staphylococcal DNA Gyrase and Pyruvate Kinase Inhibitors via Inverse Virtual Screening” (Microorganisms, 2020).

Converted amounts (≈) assume the structure as drawn. Where two headings read alike, the source gives them in different places.

The term MIC denotes the lowest concentration that inhibits growth of the organism.

Test [1] has as its system Bacillus subtilis ATCC5230. The experiment in a line: MIC determination, twofold serial dilution. In kind it is cell-based. As to conditions: read-out: MIC (B. subtilis). Here is the method:
(§1) All the bacterial strains were maintained at −80 °C in 15% glycerol nutrient broth (Oxoid, Milan, Italy).
(§2) The twofold serial dilution approach was applied to determine the MICs of each compound. Each tested compound was dissolved in DMSO (Sigma, Milan, Italy) to prepare the test solutions. Many colonies of each tested bacterial strain were inoculated in 10 mL of sterilized Mueller–Hinton broth (MHB) (Oxoid) and incubated at 37 °C for 18–24 h. […] All data are reported as the mean of three independent experiments.

Test [2] has as its system Escherichia coli ATCC 259228. The experiment in a line: MIC determination, twofold serial dilution. In kind it is cell-based. As to conditions: read-out: MIC (E. coli). Here is the method:
as §1, §2

A further test deals with MRSA ATCC33591. The test can be described thus: MIC determination, twofold serial dilution. The following applies: Staphylococcus aureus, read-out: MIC (MRSA). The test is classed as cell-based. As to the method:
as §1, §2

The subject of test [3] is Pseudomonas aeruginosa ATCC9027. The test can be described thus: MIC determination, twofold serial dilution. In kind it is cell-based. As to conditions: read-out: MIC (P. aeruginosa). As to the method: as §1, §2
In the next test the test system is Pim-1 kinase. On the set-up: method as in PMID 30061488, PMID 30525020, PMID 31395834. As to conditions: previously reported; cited from earlier work.
[4] abbreviates: Bacillus subtilis, ATCC5230, 24 h incubation, mean of three experiments.
The mark [5] stands for this setting: Escherichia coli, ATCC259228, 24 h incubation, mean of three experiments.
Where [6] appears, read: 24 h incubation, mean of three experiments.
Where [7] appears, read: Pseudomonas aeruginosa, ATCC9027, 24 h incubation, mean of three experiments.
The mark [8] stands for this setting: Bacillus subtilis, ATCC5230, 24 h.
[9] abbreviates: Escherichia coli, ATCC259228, 24 h.
[10] abbreviates: Pseudomonas aeruginosa, ATCC9027, 24 h.

Consider `OCCc1c[nH]c2ccccc12` [Compound 14, Tryptophol], for which the MIC (in test [1] (setting [4]); in test [2] (setting [5]); with MRSA ATCC33591 (setting [6]); in test [3] (setting [7])) was more than 256 µM throughout.
As to `O=C1Nc2ccccc2C1=O` [Compound 8, Isatine], the MIC in test [1] (setting [6]), in test [2] (setting [6]) and in test [3] (setting [6]) was more than 256 µM in each case.
Turning to `COC(=O)c1ccc(OC)cc1` [Compound 17, p-Anisic acid methyl ester], the MIC in test [1] (setting [6]), in test [2] (setting [6]) and in test [3] (setting [6]) was more than 256 µM each time.
Consider `CC[C@H](C=C[C@@H](C)[C@H]1CC[C@H]2[C@@H]3CC(=O)C4=CC(=O)CC[C@]4(C)[C@H]3CC[C@]12C)C(C)C` [Compound 32, Stigmasta-4,22-dien-3,6-dione], for which the MIC in test [1] (setting [6]), in test [2] (setting [6]) and in test [3] (setting [6]) was more than 256 µM throughout.
`COc1cc(C(=O)O)cc(OC)c1O` [Compound 18, Syringic acid]: the MIC (in test [1] (setting [4]); in test [2] (setting [5]); in the test on MRSA ATCC33591 (setting [6]); in test [3] (setting [7])) was more than 256 µM each time.
As for `CC(=O)C[C@]1(O)C(=O)Nc2cc(Br)ccc21` [Compound 5, Convolutamidine F], the MIC is 128 µM (≈ 36.4 µg/mL) in test [1] (setting [4]), more than 256 µM in test [2] (setting [5]), 128 µM (≈ 36.4 µg/mL) in the test with MRSA ATCC33591 (setting [6]) and more than 256 µM in test [3] (setting [7]). Further, in the test on Pim-1 kinase, the Pim-1 kinase inhibition entry is reported as “potent cytotoxic Pim-1 kinase inhibitors”.
On to `O=Cc1c[nH]c2ccccc12` [Compound 13, Indole-3-carbaldehyde], for which the MIC (in test [1] (setting [4]); in test [2] (setting [5]); in the test on MRSA ATCC33591 (setting [6]); in test [3] (setting [7])) was more than 256 µM each time.
`Cc1c[nH]c2ccccc12` [Compound 12, Skatole]: the MIC in test [1] (setting [6]), in test [2] (setting [6]) and in test [3] (setting [6]) was more than 256 µM each time.
In the case of `COc1ccc(C(=O)O)cc1` [Compound 16, p-Anisic acid], the MIC (in test [1] (setting [4]); in test [2] (setting [5]); with MRSA ATCC33591 (setting [6]); in test [3] (setting [7])) was more than 256 µM throughout.
With `CCCCCCCCCCC/C=C\CCCCC(=O)O` [Compound 36, Petroselenic acid], the MIC in test [1] (setting [6]), in test [2] (setting [6]) and in test [3] (setting [6]) was more than 256 µM in each case.
For the compound `O=C1Nc2cc(Br)ccc2C1=O` [Compound 10, 6-Bromoisatine], the MIC in test [1] (setting [4]) is 128 µM (≈ 28.9 µg/mL); in test [2] (setting [5]) it was 128 µM (≈ 28.9 µg/mL); in the test on MRSA ATCC33591 (setting [6]) it was 128 µM (≈ 28.9 µg/mL); in test [3] (setting [7]), more than 256 µM.
Regarding `CC(c1c[nH]c2ccccc12)c1c[nH]c2ccccc12` [Compound 4, Vibrindole], the MIC in test [1] (setting [4]) is 64 µM (≈ 16.7 µg/mL); in test [2] (setting [5]), 128 µM (≈ 33.3 µg/mL); in the test on MRSA ATCC33591 (setting [6]), 64 µM (≈ 16.7 µg/mL); in test [3] (setting [7]) it was more than 256 µM.
Turning to `COc1ccc(C(=O)OCc2ccccc2)cc1` [Compound 22, Benzyl anisate], the MIC in test [1] (setting [6]), in test [2] (setting [6]) and in test [3] (setting [6]) was more than 256 µM each time.
For `O=C(O)c1ccc2ccccc2c1O` [Compound 26, 1-Hydroxy-2-naphthoic acid], the MIC (in test [1] (setting [4]); in test [2] (setting [5]); in the test on MRSA ATCC33591 (setting [6]); in test [3] (setting [7])) was more than 256 µM throughout.
Take `CC1=CCC2C(CC[C@@]2(C)O)C(C)(C)C1CC[C@@H]1[C@@]2(C)CCC(=O)C(C)(C)O[C@@H]2CC[C@]1(C)O` (stereo partly drawn) [Compound 34, Sipholenone A]: the MIC (in test [1] (setting [4]); in test [2] (setting [5]); in the test on MRSA ATCC33591 (setting [6]); in test [3] (setting [7])) was more than 256 µM throughout.
Turning to `O=C(O)c1cc(O)c2ccccc2c1O` [Compound 27, 1,4 Dihydroxy-2-naphthoic acid], the MIC in test [1] (setting [6]), in test [2] (setting [6]) and in test [3] (setting [6]) was more than 256 µM each time.
Regarding `COc1cc(/C=C/C(=O)O)cc(OC)c1O` [Compound 24, Sinapic acid], the MIC in test [1] (setting [6]), in test [2] (setting [6]) and in test [3] (setting [6]) was more than 256 µM each time.
Take `Nc1ccccc1C(=O)O` [Compound 19, Anthranilic acid]: the MIC (in test [1] (setting [8]); in test [2] (setting [9]); with MRSA ATCC33591 (24 h); in test [3] (setting [10])) was more than 256 µM each time.
As to `COc1cc(C(C)=O)cc(OC)c1O` [Compound 23, Acetosyringone], the MIC (in test [1] (setting [4]); in test [2] (setting [5]); in the test with MRSA ATCC33591 (setting [6]); in test [3] (setting [7])) was more than 256 µM each time.
In the case of `O=Cc1cc(O)ccc1O` [Compound 21, Gentisaldehyde], the MIC in test [1] (setting [6]), in test [2] (setting [6]) and in test [3] (setting [6]) was more than 256 µM each time.
In the case of `CC(C)CCC[C@@H](C)[C@H]1CC[C@H]2[C@@H]3CCC4=CC(=O)CC[C@]4(C)[C@H]3CC[C@]12C` [Compound 29, Cholestenone], the MIC in test [1] (setting [6]), in test [2] (setting [6]) and in test [3] (setting [6]) was more than 256 µM each time.
Turning to `O=C(O)Cc1ccccc1` [Compound 25, Phenyl acetic acid], the MIC (in test [1] (setting [8]); in test [2] (setting [9]); in the test on MRSA ATCC33591 (24 h); in test [3] (setting [10])) was more than 256 µM throughout.
In the case of `CC(C)CCC[C@@H](C)[C@H]1CC[C@H]2[C@@H]3CC[C@H]4CC(=O)CC[C@]4(C)[C@H]3CC[C@]12C` [Compound 30, 5α-Cholestanone], the MIC in test [1] (setting [6]), in test [2] (setting [6]) and in test [3] (setting [6]) was more than 256 µM each time.
As for `CC1=CCC2C(CC[C@@]2(C)O)C(C)(C)C1CC[C@@H]1[C@@]2(C)CC[C@@H](O)C(C)(C)O[C@@H]2CC[C@]1(C)O` (stereo partly drawn) [Compound 35, Sipholenol A], the MIC (in test [1] (setting [4]); in test [2] (setting [5]); in the test on MRSA ATCC33591 (setting [6]); in test [3] (setting [7])) was more than 256 µM throughout.
In the case of `COc1ccc(/C=C/C(=O)/C=C2/C(=O)Nc3cc(Br)ccc32)cc1` [Compound 7, Saccharomon osp orine A], the MIC (in test [1] (setting [4]); in test [2] (setting [5]); in the test on MRSA ATCC33591 (setting [6]); in test [3] (setting [7])) was more than 256 µM each time. Besides, in the test with Pim-1 kinase, the Pim-1 kinase inhibition result is recorded as “potent cytotoxic Pim-1 kinase inhibitors”.
`O=C1Nc2cc(Br)ccc2[C@@]1(O)c1c[nH]c2ccccc12` [Compound 6, (S) 6-bromo-3-hydroxy-3-(1H-indol-3-yl) indolin-2-one]: the MIC in test [1] (setting [8]) was 128 µM (≈ 43.9 µg/mL); in test [2] (setting [9]), more than 256 µM; in the test with MRSA ATCC33591 (24 h) it was more than 256 µM; in test [3] (setting [10]), more than 256 µM.
Regarding `CC(=O)/C=C1/C(=O)Nc2ccc(Br)cc21` [Compound 11, (E)-5-bromo-3-(2-oxopropylidene)indolin-2-one], the MIC in test [1] (setting [6]), in test [2] (setting [6]) and in test [3] (setting [6]) was more than 256 µM each time.
Consider `O=Cc1ccc(O)cc1` [Compound 20, p-Hydroxy benzaldehyde], for which the MIC in test [1] (setting [6]), in test [2] (setting [6]) and in test [3] (setting [6]) was more than 256 µM throughout.
Callysterol [Compound 28]: the MIC in test [1] (setting [6]), in test [2] (setting [6]) and in test [3] (setting [6]) was more than 256 µM each time.
For `CC[C@H](/C=C/[C@@H](C)[C@H]1CC[C@H]2[C@@H]3CCC4=CC(=O)CC[C@]4(C)[C@H]3CC[C@]12C)C(C)C` [Compound 31, Stigmasterone], the MIC in test [1] (setting [6]), in test [2] (setting [6]) and in test [3] (setting [6]) was more than 256 µM in each case.
For the compound `CC(C)[C@@H](C)/C=C/[C@@H](C)[C@H]1CC[C@@H]2[C@]1(C)CC[C@H]1[C@]23C=C[C@]2(C[C@@H](O)CC[C@]12C)OO3` [Compound 33, Ergosterol peroxide], the MIC (in test [1] (setting [4]); in test [2] (setting [5]); in the test with MRSA ATCC33591 (setting [6]); in test [3] (setting [7])) was more than 256 µM throughout.
`O=C1Nc2ccc(Br)cc2C1=O` [Compound 9, 5-Bromoisatine]: the MIC is 128 µM (≈ 28.9 µg/mL) in test [1] (setting [4]), more than 256 µM in test [2] (setting [5]), 128 µM (≈ 28.9 µg/mL) in the test with MRSA ATCC33591 (setting [6]) and more than 256 µM in test [3] (setting [7]).
Take `O=C1Nc2ccccc2C1(c1c[nH]c2ccccc12)c1c[nH]c2ccccc12` [Compound 3, Trisindoline]: the MIC in test [1] (setting [4]) was 16 µM (≈ 5.81 µg/mL); in test [2] (setting [5]), more than 256 µM; in the test on MRSA ATCC33591 (setting [6]) it was 32 µM (≈ 11.6 µg/mL); in test [3] (setting [7]), more than 256 µM.
For the compound `O=C(O)C(=O)Cc1c[nH]c2ccccc12` [Compound 15, Indole-3-pyruvic acid], the MIC (in test [1] (setting [4]); in test [2] (setting [5]); in the test on MRSA ATCC33591 (setting [6]); in test [3] (setting [7])) was more than 256 µM each time.
